Ten compounds from US8158647B2, “Substituted pyrrolopyridines and pyrazolopyridines as kinase modulators” (SGX Pharmaceuticals, Inc., priority 2007, dated 2012) can be followed below.

Assay [1] has as its target T1, purified and unphosphorylated T315I Abl kinase domain (ABL_T315I_0P) (Mus musculus, UniProt P00520, T315I).
T1 construct: The c-Abl T3151 KD (kinase domain) was purified as follows; Met-Ser-Leu (vector-derived residues) (N); made in house; host or cells: E. coli BL21(DE3) strains (Codon+RIL, or pSA0145 for the lambda phosphatase co-expression plasmid)
T1 sequence (P00520 242-493 T315I limits assumed): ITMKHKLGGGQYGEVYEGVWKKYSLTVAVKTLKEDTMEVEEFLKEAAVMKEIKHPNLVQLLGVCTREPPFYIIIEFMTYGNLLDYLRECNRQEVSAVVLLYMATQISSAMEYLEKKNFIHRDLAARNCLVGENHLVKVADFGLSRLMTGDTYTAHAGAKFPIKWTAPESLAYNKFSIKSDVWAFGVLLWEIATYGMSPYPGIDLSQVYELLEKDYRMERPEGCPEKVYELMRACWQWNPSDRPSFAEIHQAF
The assay can be described thus: c-Abl T315I (unphosphorylated kinase domain) pyruvate kinase/lactate dehydrogenase coupled enzyme assay. The assay is classed as biochemical. The note with it: 10 μM ATP.

Assay [2] has as its target T2, ABL P210WT BAF3 cells (Homo sapiens, UniProt P00519).
T2 construct: ABL P210WT BAF3; fused on or other part: P11274 (Breakpoint cluster region protein)
Briefly: 96-well XTT cell survival assay, BaF3 ABL P210WT. In kind it is cell-based. The note with it: ABL P210 WT, 72 hours, read-out: CELL BIO ABL P210WT BAF3 XTT (IC50). The gist of the method: (§1)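 Ba/F3 cells in RPMI 1640 with 10% FBS (IL-3 medium for maintenance) were seeded at 5000-8000 cells/well and exposed to compound dilutions in duplicate for 72 h at 37° C. Viability read by XTT/PMS, absorbance 405 nm minus 650 nm after 2-6 h.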

Assay [3] has as its target T3, ABL T315I BAF3 cells (Homo sapiens, UniProt P00519, T315I, cells depend on it).
T3 construct: ABL T315I BAF3; fused on or other part: P11274 (Breakpoint cluster region protein)
Briefly: 96-well XTT cell survival assay, BaF3 ABL T315I. The assay is classed as cell-based. The note with it: 72 hours, read-out: CELL BIO ABL T315I BAF3 XTT (IC50). The gist of the method:
as §1
A general note: Tetrazolium assays rely on reduction of a dye to a coloured formazan, in cell work by metabolically active cells.

`CN(C)C(=O)Cc1cncc(-c2cnc3[nH]cc(-c4cccc(F)c4F)c3c2Cl)c1` [2-{5-[4-Chloro-3-(2,3-difluoro-phenyl)-1H-pyrrolo[2,3-b]pyridin-5-yl]-pyridin-3-yl}-N,N-dimethyl-acetamide]: the “ABL_T315I_0P (IC50)” value in assay [1] is recorded as “D (<0.01 μM)”. Also, the GI50 in assay [2] and in assay [3] was 100 to 1000 nM each time.

With `CN(C)C(=O)C(O)c1cncc(-c2cnc3[nH]cc(-c4ccccc4Cl)c3c2Cl)c1` (stereo not drawn) [2-{5-[4-Chloro-3-(2-chloro-phenyl)-1H-pyrrolo[2,3-b]pyridin-5-yl]-pyridin-3-yl}-2-hydroxy-N,N-dimethyl-acetamide], the “ABL_T315I_0P (IC50)” value in assay [1] is “D (<0.01 μM)”. In addition, the GI50 in assay [2] and in assay [3] was 100 to 1000 nM throughout.

On to `CN(C)C(=O)C(O)c1cncc(-c2cnc3[nH]cc(-c4ccccc4F)c3c2Cl)c1` (stereo not drawn) [2-{5-[4-Chloro-3-(2-fluoro-phenyl)-1H-pyrrolo[2,3-b]pyridin-5-yl]-pyridin-3-yl}-2-hydroxy-N,N-dimethyl-acetamide], for which the “ABL_T315I_0P (IC50)” value in assay [1] is recorded as “D (<0.01 μM)”. For the same compound, the GI50 in assay [2] and in assay [3] was 100 to 1000 nM each time.

Consider `COc1ccccc1-c1n[nH]c2ncc(-c3cncc(C(O)C(=O)N(C)C)c3)c(Cl)c12` (stereo not drawn) [2-{5-[4-Chloro-3-(2-methoxy-phenyl)-1H-pyrazolo[3,4-b]pyridin-5-yl]-pyridin-3-yl}-2-hydroxy-N,N-dimethyl-acetamide], for which the “ABL_T315I_0P (IC50)” value in assay [1] is recorded as “C (0.1-0.01 μM)”. For the same compound, the GI50 in assay [2] and in assay [3] was 100 to 1000 nM each time.

`COc1ccccc1-c1c[nH]c2ncc(-c3cncc(C(O)C(=O)N(C)C)c3)c(Cl)c12` (stereo not drawn) [2-{5-[4-Chloro-3-(2-methoxy-phenyl)-1H-pyrrolo[2,3-b]pyridin-5-yl]-pyridin-3-yl}-2-hydroxy-N,N-dimethyl-acetamide]: the “ABL_T315I_0P (IC50)” value in assay [1] is “D (<0.01 μM)”. The GI50 in assay [2] and in assay [3] was under 10 nM in each case.

Regarding `COc1ccccc1-c1c[nH]c2ncc(-c3cncc(CC(=O)N(C)C)c3)c(Cl)c12` [2-{5-[4-Chloro-3-(2-methoxy-phenyl)-1H-pyrrolo[2,3-b]pyridin-5-yl]-pyridin-3-yl}-N,N-dimethyl-acetamide], the “ABL_T315I_0P (IC50)” value in assay [1] was “D (<0.01 μM)”. For the same compound, the GI50 in assay [2] and in assay [3] was 10 to 100 nM each time.

In the case of `COc1ncccc1-c1c[nH]c2ncc(-c3cncc(C(O)C(=O)N(C)C)c3)c(Cl)c12` (stereo not drawn) [2-{5-[4-Chloro-3-(2-methoxy-pyridin-3-yl)-1H-pyrrolo[2,3-b]pyridin-5-yl]-pyridin-3-yl}-2-hydroxy-N,N-dimethyl-acetamide], the “ABL_T315I_0P (IC50)” value in assay [1] was “D (<0.01 μM)”. Besides, the GI50 in assay [2] is 10 to 100 nM; in assay [3] it was 100 to 1000 nM.

Take `COc1cnccc1-c1c[nH]c2ncc(-c3cncc(C(O)C(=O)N(C)C)c3)c(Cl)c12` (stereo not drawn) [2-{5-[4-Chloro-3-(3-methoxy-pyridin-4-yl)-1H-pyrrolo[2,3-b]pyridin-5-yl]-pyridin-3-yl}-2-hydroxy-N,N-dimethyl-acetamide]: in assay [1], the “ABL_T315I_0P (IC50)” value is on record as “D (<0.01 μM)”. The GI50 in assay [2] and in assay [3] was over 1000 nM each time.

Turning to `CN(C)C(=O)C(O)c1cncc(-c2cnc3[nH]cc(-c4ccc(F)cc4)c3c2Cl)c1` (stereo not drawn) [2-{5-[4-Chloro-3-(4-fluoro-phenyl)-1H-pyrrolo[2,3-b]pyridin-5-yl]-pyridin-3-yl}-2-hydroxy-N,N-dimethyl-acetamide], the “ABL_T315I_0P (IC50)” value in assay [1] is reported as “C (0.1-0.01 μM)”. The GI50 in assay [2] was 100 to 1000 nM; in assay [3] it was over 1000 nM.

For the compound `COc1ccncc1-c1c[nH]c2ncc(-c3cncc(C(O)C(=O)N(C)C)c3)c(Cl)c12` (stereo not drawn) [2-{5-[4-Chloro-3-(4-methoxy-pyridin-3-yl)-1H-pyrrolo[2,3-b]pyridin-5-yl]-pyridin-3-yl}-2-hydroxy-N,N-dimethyl-acetamide], the “ABL_T315I_0P (IC50)” value in assay [1] was “D (<0.01 μM)”. The GI50 in assay [2] and in assay [3] was 100 to 1000 nM throughout.
